One experiment relates to cyclin D1. The experiment is described as follows: Expression of cyclin D1 in MDA-MB-361 ER+ breast cancer cells treated with eFT226. Format: cell-based. Particulars: MDA-MB-361 cells, 24 hours, FIG. 1. The procedure:
(§1) The effect of eFT226 on key cell cycle regulators in MDA-MB-361 ER^+ breast cancer cells was tested. MDA-MB-361 ER^+ breast cancer cells were treated with varying concentrations of eFT226 (10 nM, 30 nM, and 100 nM) for 24 hours, and analyzed for the expression of the relevant key cell cycle regulators, cyclin D1, CDK4, and phosphorylated retinoblastoma (Rb) protein.

The next experiment concerns CDK4. Put plainly: Expression of CDK4 in MDA-MB-361 ER+ breast cancer cells treated with eFT226. It counts as cell-based. Particulars: MDA-MB-361 cells; eFT226 10 nM, 30 nM, 100 nM; 24 hours; FIG. 1. On the procedure: as §1
Experiment [1] has as its system phosphorylated retinoblastoma (Rb) protein. Put plainly: Phosphorylated Rb protein in MDA-MB-361 ER+ breast cancer cells treated with eFT226. Format: cell-based. Particulars: MDA-MB-361 cells; eFT226 10 nM, 30 nM, 100 nM; 24 hours; FIG. 1. The procedure: as §1
Experiment [2] has as its system MDA-MB-361 ER^+ breast cancer cells. The experiment is described as follows: Cell viability of MDA-MB-361 cells, single agents and combination. Particulars: Palbociclib 40 nM, eFT226 45 nM, 24 hours, then Palbociclib only for 6 days, versus untreated control, FIG. 2. It counts as cell-based. On the procedure:
MDA-MB-361 ER^+ breast cancer cells were seeded at 10,000 cells/well in 24-well plates and treated with DMSO (“control”), Palbociclib (40 nM)(“Palbo”), eFT226 (45 nM) (“eFT226”), or the combination of the two drugs (“Combo”). After 24 hours of treatment, cells were rinsed and treatment with Palbociclib only was continued for 6 days, at which time cell viability was determined. Cells were counted on day 0 and day 6, when the experiment was ended.

Experiment [3] shares this test system. The experiment is described as follows: MDA-MB-361 xenograft tumor growth in athymic mice. Format: in vivo. Particulars: eFT226 0.1 mg/kg intravenously Q4D, palbociclib 30 mg/kg orally QD, 18 days, tumor volume followed up to 45 days after last dose, FIG. 3. The procedure:
The in vivo effect of a combination treatment using eFT226 and palbociclib on the tumor growth of MDA-MB-361 ER^+ breast cancer cells was tested. Xenograft experiments were performed by implanting MDA-MB-361 ER^+ breast cancer cells into athymic mice. Athymic mice implanted with MDA-MB-361 tumor cells were randomized and size-matched into vehicle and treatment groups when the mean tumor size reached ˜300 mm^3. The mice were then treated with (1) control vehicle; (2) 0.1 mg/kg of eFT226 administered intravenously every 4 days (Q4D) for a period of 18 days; (3) 30 mg/kg of palbociclib administered orally every day (QD) for a period of 18 days; or (4) 0.1 mg/kg of eFT226 administered intravenously Q4D and 30 mg/kg of palbociclib administered orally QD for a period of 18 days. The effect on the above treatments on tumor volume was monitored. Tumor volume was measured periodically for up to 45 days after the last dose of treatment was administered. […] Administration of either eFT226 or palbociclib alone led to a inhibition of tumor growth for about 22 days after the treatment was stopped. […] It is unknown what factors determine the equilibrium between the CDK4/6 inhibitor-sensitive monomeric CDK4 and the drug resistant p27-CDK4-cyclin D1 trimer.

In experiment [4] the test system is SW620 (KRAS G12V) colorectal cancer cells. The experiment is described as follows: Cell viability (crystal violet) in KRAS mutant SW620 cells. Particulars: Palbociclib 100 nM, eFT226 10 or 50 nM, 24 hours, then Palbociclib alone for 13 days, FIG. 4. It counts as cell-based. On the procedure: (§2) SW620 (KRAS G12V) colorectal cancer cells (FIG. 1), DLD1 (KRAS G13D) colorectal cancer cells (FIG. 2), and CORL23 (KRAS G12V) NSCLC cells (FIG. 3) were seeded at 500-1,000 cells/well in 6-well plates and treated with DMSO control (“DMSO”), Palbociclib (100 nM) (“Palbo”), eFT226 (10 or 50 nM), or the combination of the two drugs (“Palbo+eFT226). After 24 hours of treatment, cells were rinsed and treatment with Palbociclib alone was continued for an additional 13 days. At the end of treatment, cells were rinsed with phosphate buffered saline (PBS) and stained with crystal violet.

The subject of experiment [5] is DLD1 (KRAS G13D) colorectal cancer cells. Put plainly: Cell viability (crystal violet) in KRAS mutant DLD1 cells. Format: cell-based. Particulars: Palbociclib 100 nM, eFT226 10 or 50 nM, 24 hours, then Palbociclib alone for 13 days, FIG. 5. On the procedure:
as §2

Experiment [6] deals with CORL23 (KRAS G12V) NSCLC cells. Put plainly: Cell viability (crystal violet) in KRAS mutant CORL23 cells. Format: cell-based. Particulars: Palbociclib 100 nM, eFT226 10 or 50 nM, 24 hours, then Palbociclib alone for 13 days, FIG. 6. The procedure:
as §2

Take `COc1cc2c(c(OC)n1)[C@]1(O)[C@H](O)[C@H](CN(C)C)[C@@H](c3ccccc3)[C@]1(c1ccc(C#N)cc1)O2` [eFT226]: the “decrease of Cyclin D1 protein levels compared with Fulvestrant” value in the experiment on cyclin D1 is recorded as “more effective than Fulvestrant (Fulv) in decreasing Cyclin D1 protein levels”. Further, the “cyclin D1 expression” value in the experiment on cyclin D1 (eFT226 10 nM, 30 nM, 100 nM) is “suppression of cyclin D1 and CDK4 expression was observed in the cell line at all concentrations”. The CDK4 expression result in the experiment with CDK4 was “suppression of cyclin D1 and CDK4 expression was observed in the cell line at all concentrations”. For the same compound, in experiment [1], the “phosphorylated Rb protein” value is recorded as “concomitant decrease in phosphorylated Rb protein”. Also, the cell viability result in experiment [2], in experiment [4], in experiment [5] and in experiment [6] was “reduced” in each case. The “duration of inhibition of tumor growth after the last dose” value in experiment [3] is given as “about 22 days”.
`CC(=O)c1c(C)c2cnc(Nc3ccc(N4CCNCC4)cn3)nc2n(C2CCCC2)c1=O` [palbociclib, reference compound]: in experiment [3], the “duration of inhibition of tumor growth after the last dose” value was “about 22 days”.
